Assay [1] has as its target T1, oxytocin receptors (OTR) (Homo sapiens, UniProt P30559).
T1 construct: endogenous in cells; host or cells: primary human term pregnant myometrial cells (from C-section tissue, collagenase dispersion)
T1 sequence (P30559 1-389): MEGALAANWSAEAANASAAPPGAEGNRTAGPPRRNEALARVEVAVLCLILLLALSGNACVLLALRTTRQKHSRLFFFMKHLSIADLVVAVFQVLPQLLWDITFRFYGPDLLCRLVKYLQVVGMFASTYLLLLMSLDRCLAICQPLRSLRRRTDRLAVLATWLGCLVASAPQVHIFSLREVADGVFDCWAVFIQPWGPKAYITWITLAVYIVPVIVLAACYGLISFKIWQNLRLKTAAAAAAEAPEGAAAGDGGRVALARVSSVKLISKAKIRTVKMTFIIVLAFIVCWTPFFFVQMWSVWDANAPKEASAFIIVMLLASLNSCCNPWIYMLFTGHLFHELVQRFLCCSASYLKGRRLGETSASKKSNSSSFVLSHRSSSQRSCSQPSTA
As to the kind of experiment: Competition with 125I-OTA for OTR binding, whole-cell assay in human myometrial cells. The conditions noted are these: for affinity for OTR binding: FIG. 1. The procedure: FIG. 1. […] Percent inhibition of ^125I-OTA binding in human myometrial cells.
Determination of OTR ligand binding: OTA was monoiodinated as previously described (Hinko and Soloff, 1992). The specific activity of the iodinated peptide was 2000 Ci/mmol at the time of preparation. Whole cell assays for specific OTR binding activity were performed as described previously, using increasing concentrations of [^125I]OTA (Copland et al., 1999). The concentration of cellular DNA was determined in parallel, using the Hoechst dye H 33258 and a Hoefer DyNA Quant fluorometer according to the manufacturer's instructions.
The specific binding was determined by subtracting […]. Specific binding was expressed as a percent of total binding. All points were done in triplicate.

Assay [2] has as its system oxytocin receptor (OTR) in human term myometrial cells. As to the kind of experiment: Oxytocin-induced intracellular calcium transients in human term myometrial cells (Fura-2, single cells). Format: cell-based. The conditions noted are these: 0.001 μg/ml (2.2 nM) troglitazone, 1 min before 10 nM oxytocin; FIG. 3B. The protocol:
FIGS. 3A-H. Change in intracellular cytoplasmic calcium levels in human term myometrial cells in culture. Each line represents the change in calcium for a single cell. Cells were either pretreated with troglitazone for one minute and then treated with oxytocin, bombesin (BBS), or bradykinin. These three agents cause an increase in intracellular calcium and cause uterine contraction under the correct circumstance. Cells were grown in 10% FBS, DMEM, penicillin/streptomycin resulting in elevated OTR levels. Cells were then put into KRH buffer containing Fura-2. The cells take up Fura-2 allowing for detection in changes of cytoplasmic levels of calcium. Cells were then treated as described for each figure. […] There is no effect of troglitazone at this concentration upon oxytocin-stimulated calcium transients.
Cell Culture Conditions: The proper protocols were followed in obtaining human term myometrium tissue from mother's delivering via C-section. Human term pregnant myometrial cells were isolated by collagenase dispersion and were grown in media consisting of Delbecco's modified eagles media (DMEM) supplemented with 10% fetal bovine serum (FBS), and 2% penicillin/streptomycin in a humidified tissue culture incubator at 37° C. under an atmosphere of 5% CO2 and 95% air. […]

Assay [3] relates to oxytocin induced uterine contractions. Conditions: Thornton et al. 1999; cited from earlier work.
The mark [4] stands for this setting: FIG. 1, read-out: IC50, 125I-OTA binding to OTR.

We go through six compounds from patent publication US7528133B1, “Use of thiazolidinediones derivatives for preventing uterine contractions in premature labour or lactation” (The Board of Regents of The University of Texas System, priority 1998, dated 2009).

Molecules are shown by their SMILES. Like-named read-outs stand apart in the source and are kept apart here.

On to `Cc1c(C)c2c(c(C)c1OC(=O)CCC(=O)O)CC[C@@](C)(CCC[C@H](C)CCC[C@H](C)CCCC(C)C)O2` [Vitamin E succinate], for which, in assay [1], the “affinity for OTR binding” value was “no affinity”. For the compound `Cc1c(C)c2c(c(C)c1O)CCC(C)(COc1ccc(CC3SC(=O)NC3=O)cc1)O2` (racemic) [troglitazone, ±5-[[4-[(3,4-dihydro-6-hydroxy-2,5,7,8-tetramethyl-2H-1-benzopyran-2-yl)methoxy]phenyl]methyl]-2,4-thiazolidinedione], the “effect on oxytocin-stimulated calcium transients” value in assay [2] was “no effect”. Moreover, in assay [1] (FIG. 1, read-out: 50% inhibitory concentration (IC50), 125I-OTA binding to OTR), the IC50 was found to be 0.0157 µM. `CC(=O)[C@H]1CC[C@H]2[C@@H]3CC[C@H]4CC(=O)CC[C@]4(C)[C@H]3CC[C@]12C` [5β-dihydroprogesterone]: the “concentration needed to inhibit oxytocin induced uterine contractions” value in assay [3] is 100 µM. In addition, the IC50 in assay [1] (setting [4]) was approximately 100 µM. Take `CCc1ccc(CCOc2ccc(CC3SC(=O)NC3=O)cc2)nc1` (centres unmarked) [pioglitazone]: in assay [1] (setting [4]), the IC50 was approximately 10.6 µM.

As for `C[C@]12CC[C@@H]3c4ccc(O)cc4CC[C@H]3[C@@H]1CC[C@@H]2O` [17β-estradiol], in assay [1], the “affinity for OTR binding” value is reported as “no affinity”.

As to `CN(CCOc1ccc(CC2SC(=O)NC2=O)cc1)c1ccccn1` (centres unmarked) [BRL49653, rosiglitazone], the IC50 in assay [1] (setting [4]) is approximately 10.6 µM.
